Data as given in US20250248954A1, “PHARMACEUTICAL COMPOSITION FOR PREVENTING OR TREATING DIABETIC STROKE, CONTAINING RAGE ANTAGONIST AND AGE SCAVENGER” (AJOU UNIVERSITY INDUSTRY-ACADEMIC COOPERATION FOUNDATION, priority 2022, published 2025).

How the values were obtained:
Assay type in all cases: in vivo, SD rats
[1] = test system: hyperglycemic model subjected to temporary middle cerebral artery occlusion (tMCAO); assay: Hyperglycemic (STZ) rat 30-minute tMCAO cerebral ischemia model: body weight, mNSS test, brain injury (cresyl violet); settings: 30 min MCAO, 10 mg/kg i.p. once a day
Procedure: (§1) Specifically, these were carried out as follows. To produce an experimental animal model, 7-week-old male SD rats were fasted for 16 hours. Thereafter, streptozotocin (STZ) was administered to the rats, and after 3 days, fasting blood glucose levels were measured in the tail vein, and only animals with a blood glucose level of 300 mg/dl or more were used as a hyperglycemic model. A cerebral ischemia model was produced by subjecting the produced hyperglycemic model or a normoglycemic model to temporary middle cerebral artery occlusion (tMCAO). For MCAO, a coated suture was inserted through the right external carotid artery into the internal carotid artery, and inserted approximately 19 mm up to the middle cerebral artery (MCA). 30 minutes or 2 hours after insertion, the coated suture was removed, and a reperfusion model was used as a cerebral ischemia model. […] The normoglycemic group (NG), after 2 hours of MCAO, was divided into a vehicle group and an FPS-ZM1 group and used in the experiment. The hyperglycemic group (HG), after 30 minutes of MCAO, was divided into a vehicle group and an FPS-ZM1 group and used in the experiment. The FPS-ZM1 group in each of the normoglycemic group and the hyperglycemic group was injected intraperitoneally with 10 mg/kg of FPS-ZM1 within 5 minutes after MCAO reperfusion and injected with FPS-ZM1 once a day. After surgery, the mNSS (modified neurological severity score) test shown in FIG. 9 and weight measurement were conducted at a certain time every day to check body weight changes and neurobehavioral deficits of the experimental animals. In addition, rats were sacrificed 3 days after MCAO, and plasma and brain tissue were collected and analyzed.
(§2) After performing MCAO, body weight measurement and the mNSS test were performed at the same time every day.
(§3) To evaluate brain injury, the volume of cerebral infarction was determined by staining the entire brain with cresyl violet at 1-mm intervals.

[2] = test system: normoglycemic model subjected to temporary middle cerebral artery occlusion (tMCAO); assay: Normoglycemic rat 2-hour tMCAO cerebral ischemia model: body weight, brain injury (cresyl violet); settings: 2 h MCAO, 10 mg/kg i.p. once a day
Procedure: as §1, §2, §3

[3] = test system: RAGE, AGE, methylglyoxal (MGH1), GFAP; assay: Western blot analysis of protein expression in brain tissue, hyperglycemic tMCAO group; settings: HG, 30 min MCAO, 10 mg/kg i.p.
Procedure: as §1, with “analyzed. After all experiments were completed, the protein expression levels of RAGE, AGE, and methylglyoxal (MGH1) in the brain tissue from each experimental group were analyzed by Western blot analysis. For comparison, protein expression in the brain tissue from normal rats (sham) was used as a control.” for “analyzed.”

[4] = test system: RAGE, AGE, methylglyoxal (MGH1); assay: Western blot analysis of protein expression in brain tissue, normoglycemic tMCAO group; settings: NG, 2 h MCAO, 10 mg/kg i.p.
Procedure: as §1, with “analyzed. After all experiments were completed, the protein expression levels of RAGE, AGE, and methylglyoxal (MGH1) in the brain tissue from each experimental group were analyzed by Western blot analysis. For comparison, protein expression in the brain tissue from normal rats (sham) was used as a control.” for “analyzed.”

[5] = test system: neuronal cell death, astrocytes and microglia, AGE and MGH1 in the cerebral cortex; assay: Cresyl violet and immunohistochemical staining of cerebral cortex, hyperglycemic tMCAO group; settings: HG, 30 min MCAO; 10 mg/kg i.p.; FIG. 4
Procedure: Specifically, these were carried out as follows. To produce an experimental animal model, 7-week-old male SD rats were fasted for 16 hours. Thereafter, streptozotocin (STZ) was administered to the rats, and after 3 days, fasting blood glucose levels were measured in the tail vein, and only animals with a blood glucose level of 300 mg/dl or more were used as a hyperglycemic model. A cerebral ischemia model was produced by subjecting the produced hyperglycemic model or a normoglycemic model to temporary middle cerebral artery occlusion (tMCAO). For MCAO, a coated suture was inserted through the right external carotid artery into the internal carotid artery, and inserted approximately 19 mm up to the middle cerebral artery (MCA). 30 minutes or 2 hours after insertion, the coated suture was removed, and a reperfusion model was used as a cerebral ischemia model. Since cerebral infarction was rarely found in normoglycemic animals after 30-minute MCAO, a model subjected to 2 hours of MCAO was used and compared with the hyperglycemic group. The normoglycemic group (NG), after 2 hours of MCAO, was divided into a vehicle group and an FPS-ZM1 group and used in the experiment. The hyperglycemic group (HG), after 30 minutes of MCAO, was divided into a vehicle group and an FPS-ZM1 group and used in the experiment. The FPS-ZM1 group in each of the normoglycemic group and the hyperglycemic group was injected intraperitoneally with 10 mg/kg of FPS-ZM1 within 5 minutes after MCAO reperfusion and injected with FPS-ZM1 once a day. After surgery, the mNSS (modified neurological severity score) test shown in FIG. 9 and weight measurement were conducted at a certain time every day to check body weight changes and neurobehavioral deficits of the experimental animals. In addition, rats were sacrificed 3 days after MCAO, and plasma and brain tissue were collected and analyzed.
The degree of neuronal cell death in the cerebral cortex from each experimental group was analyzed using cresyl violet staining. In addition, immunohistochemistry was used to analyze the level of activity of astrocytes and microglia and the expression levels of AGE and MGH1 in the cells.

[6] = test system: neuronal cell death in the cerebral cortex; assay: Cresyl violet staining of cerebral cortex, normoglycemic tMCAO group; settings: NG, 2 h MCAO; 10 mg/kg i.p.; vs sham group; FIG. 4
Procedure: Specifically, these were carried out as follows. To produce an experimental animal model, 7-week-old male SD rats were fasted for 16 hours. Thereafter, streptozotocin (STZ) was administered to the rats, and after 3 days, fasting blood glucose levels were measured in the tail vein, and only animals with a blood glucose level of 300 mg/dl or more were used as a hyperglycemic model. A cerebral ischemia model was produced by subjecting the produced hyperglycemic model or a normoglycemic model to temporary middle cerebral artery occlusion (tMCAO). For MCAO, a coated suture was inserted through the right external carotid artery into the internal carotid artery, and inserted approximately 19 mm up to the middle cerebral artery (MCA). 30 minutes or 2 hours after insertion, the coated suture was removed, and a reperfusion model was used as a cerebral ischemia model. Since cerebral infarction was rarely found in normoglycemic animals after 30-minute MCAO, a model subjected to 2 hours of MCAO was used and compared with the hyperglycemic group. […] In addition, rats were sacrificed 3 days after MCAO, and plasma and brain tissue were collected and analyzed.
The degree of neuronal cell death in the cerebral cortex from each experimental group was analyzed using cresyl violet staining. […]

[7] = test system: ZO-1, occludin, claudin, Tie-2, VEGF, Ang-1, MMP-2, MMP-9; assay: Real-time PCR of vascular-related factors in brain tissue after tMCAO; settings: 10 mg/kg i.p., FIG. 5
Procedure: Specifically, these were carried out as follows. To produce an experimental animal model, 7-week-old male SD rats were fasted for 16 hours. Thereafter, streptozotocin (STZ) was administered to the rats, and after 3 days, fasting blood glucose levels were measured in the tail vein, and only animals with a blood glucose level of 300 mg/dl or more were used as a hyperglycemic model. A cerebral ischemia model was produced by subjecting the produced hyperglycemic model or a normoglycemic model to temporary middle cerebral artery occlusion (tMCAO). For MCAO, a coated suture was inserted through the right external carotid artery into the internal carotid artery, and inserted approximately 19 mm up to the middle cerebral artery (MCA). 30 minutes or 2 hours after insertion, the coated suture was removed, and a reperfusion model was used as a cerebral ischemia model. […] The normoglycemic group (NG), after 2 hours of MCAO, was divided into a vehicle group and an FPS-ZM1 group and used in the experiment. The hyperglycemic group (HG), after 30 minutes of MCAO, was divided into a vehicle group and an FPS-ZM1 group and used in the experiment. […] In addition, rats were sacrificed 3 days after MCAO, and plasma and brain tissue were collected and analyzed.

[8] = test system: experimental animal model of diabetes mellitus (DM) subjected to tMCAO; assay: Diabetic (STZ, 34 days) rat 30-minute tMCAO model: body weight, blood glucose, glycated hemoglobin, brain injury by MRI; settings: diabetic rats, vs DM-vehicle
Procedure: (§4) Specifically, these were carried out as follows. To produce an experimental animal model of diabetes mellitus (DM), 7-week-old male SD rats were fasted for 16 hours. Thereafter, streptozotocin (STZ) was administered to the rats, and on day 3, blood glucose levels were measured. The rats were divided into a vehicle group and an aminoguanidine (AG) group, which had similar average blood glucose levels, and were maintained for 34 days. The AG group was orally administered 100 mg/kg of aminoguanidine once a day starting from day 4 after diabetes induction, and was finally administered aminoguanidine within 30 minutes after MCAO. On day 1 after MCAO, the mNSS test shown in FIG. 9 was performed, and then cerebral infarction was checked using an animal MRI system. Next, the rats were sacrificed, and plasma and brain tissue were collected and analyzed. For comparison, protein expression in the brain tissue from normal rats (sham) was used as a control. The impact on diabetes was evaluated by checking changes in body weight and blood glucose levels once a week after diabetes induction and checking final glycated hemoglobin levels after MCAO. To evaluate brain injury, the volume of cerebral infarction was determined using an animal MRI system.

MGH1 = MGH1 expression in brain tissue of diabetic tMCAO groups by immunohistochemical staining and Western blot; settings: diabetic rats, day 1 after MCAO; 100 mg/kg orally once a day from day 4; vs vehicle group; FIG. 8
Procedure: as §4, with “control.” for “control. The impact on diabetes was evaluated by checking changes in body weight and blood glucose levels once a week after diabetes induction and checking final glycated hemoglobin levels after MCAO. To evaluate brain injury, the volume of cerebral infarction was determined using an animal MRI system.”
Day 1 after MCAO, the expression levels of MGH1 in the brain tissues from the diabetic groups were analyzed by immunohistochemical staining and Western blot analysis.

[9] = HG, 3 days after MCAO, vs HG-vehicle, cresyl violet
[10] = NG, 3 days after MCAO, vs NG-vehicle

**Q.** `O=C(c1ccc(Cl)cc1)N(Cc1ccccc1)C1CCCCC1` [FPS-ZM1] was tested. Which “cross-sectional area of injury” value [1, 9] did it give?
**A.** significantly decreased

**Q.** And the “volume of actual injury” value [1, 9]?
**A.** more significant in the HG-FPS-ZM1 group than in the HG-vehicle group

**Q.** And the mNSS score ([1]; HG, vs the other MCAO groups, FIG. 1C)?
**A.** significantly lower than those in the other groups

**Q.** What about the “body weight change after MCAO” value ([1]; hyperglycemic group (HG), vs initial body weight before MCAO, FIG. 1B) of the same compound?
**A.** no reduction in body weight

**Q.** What about the “cross-sectional area of injury” value [2, 10] of the same compound?
**A.** difficult through the area photographs to confirm the degree of reduction

**Q.** And the overall injury volume [2, 10]?
**A.** decreased slightly in the NG-FPS-ZM1 group, but this decrease was not significant

**Q.** What about the “body weight change after MCAO” value ([2]; normoglycemic group (NG), vs initial body weight before MCAO, FIG. 1B) of the same compound?
**A.** decreased compared to the initial body weight

**Q.** What about the “MGH1 protein expression level in brain tissue (Western blot)” value ([3]; between all groups, FIG. 3) of the same compound?
**A.** no significant difference

**Q.** What about the “AGE expression level in brain tissue (Western blot)” value ([3]; vs HG-vehicle) of the same compound?
**A.** significantly lower

**Q.** And the “GFAP expression level in brain tissue (Western blot)” value ([3]; vs HG-vehicle)?
**A.** significantly lower

**Q.** What about the “MGH1 protein expression level in brain tissue (Western blot)” value ([4]; between all groups, FIG. 3) of the same compound?
**A.** no significant difference

**Q.** What about the “AGE expression level in brain tissue (Western blot)” value ([4]; vs NG-vehicle) of the same compound?
**A.** no significant difference

**Q.** What about the “RAGE expression level in brain tissue (Western blot)” value ([4]; vs NG-vehicle) of the same compound?
**A.** no significant difference

**Q.** And the “activated astrocytes (GFAP staining)” value [5]?
**A.** less observed

**Q.** And the “intracellular AGE staining” value [5]?
**A.** less observed

**Q.** And the “intracellular MGH1 staining” value [5]?
**A.** less observed

**Q.** And the “neuronal cell death / number of live cells in cerebral cortex (cresyl violet staining)” value [5]?
**A.** the number of live cells was larger

**Q.** What about the “degree of neuronal cell death in cerebral cortex (cresyl violet staining)” value [6] of the same compound?
**A.** higher

**Q.** And the “expression level of MMP-9 in brain tissue (real-time PCR)” value ([7]; HG, 30 min MCAO, vs HG-vehicle)?
**A.** significantly decreased in the HG-FPS-ZM1 group to a level similar to that in the sham group

**Q.** What about the “expression levels of most vascular-related factors in brain tissue (real-time PCR)” value ([7]; HG-FPS-ZM1 group compared to NG-FPS-ZM1 group) of the same compound?
**A.** increased in the HG-FPS-ZM1 group compared to the NG-FPS-ZM1 group, but there was no significant difference between the groups

**Q.** Which “brain injury (volume of cerebral infarction, animal MRI)” value ([8]; 30 min MCAO on day 34, 100 mg/kg orally once a day from day 4, day 1 after MCAO) does the source give for `N=C(N)NN` [AG, aminoguanidine] here?
**A.** no significant difference

**Q.** And the glycated hemoglobin level ([8]; 100 mg/kg orally once a day from day 4, after MCAO)?
**A.** no significant difference

**Q.** What about the blood glucose level ([8]; 100 mg/kg orally once a day from day 4) of the same compound?
**A.** no significant difference

**Q.** And the “change in body weight” value ([8]; 100 mg/kg orally once a day from day 4 after diabetes induction)?
**A.** not significantly different

**Q.** And the “expression level of MGH1 in brain tissue (immunohistochemical staining and Western blot)” value (MGH1)?
**A.** decreased
